From article PMC8665362, “Identification of small-molecule allosteric modulators that act as enhancers/disrupters of rhodopsin oligomerization” (The Journal of Biological Chemistry, 2021)
Marks after values point to notes of the source that are not given here.

Assays:
bovine rhodopsin = target: T1, bovine rhodopsin (Bos taurus, UniProt P02699); test: rhodopsin Meta II decay assay (Trp265 intrinsic fluorescence); settings: 100 μM compound; for Meta II decay rate (slope of intrinsic fluorescence over 150 s) relative to DMSO control: bleached rhodopsin, p < 0.0001
T1 construct: The washed ROS with isotonic and hypotonic buffers was used as described above; from tissue; host or cells: bovine rod outer segments (ROS)
Procedure: However, oligomerization of isorhodopsin could affect the chromophore release from opsin. The chromophore release can be measured sensitively by the light-induced increase in intrinsic fluorescence of the Trp^265 residue that occurs upon release of the chromophore after illumination ([43]).
The washed ROS with isotonic and hypotonic buffers was used as described above. The solubilized rhodopsin at 1.05 mg/ml in 20 mM 1,3-bis(tris(hydroxymethyl)methylamino) propane, pH 6.9, 100 mM NaCl, and 1 mM LMNG buffer was incubated for 5 min at 20 °C with 0.7 μl of 100 mM stock solutions of the nine identified hit compounds (100 μM final concentration) in DMSO and centrifuged at 1000g for an additional 5 min. Next, photobleaching was carried out with a 150-W fiber light delivered through a 480 to 520 nm band pass filter (Chroma Technology) for 10 s. Samples were subjected to fluorescence measurements acquired through 150 s in triplicate. The results were analyzed with an L55 luminescence spectrophotometer (PerkinElmer) operating at excitation and emission wavelengths of 300 nm and 335 nm, respectively.

[1] = test system: individual rod photoreceptors; test: single-cell suction electrode recording from rod outer segments; format: cell-based, mouse (C57BL/6J); settings: long incubation time during sample preparation for single-cell recording
Procedure: Because it is possible that reduction of Rmax by compound #1 is due to some effect(s) on the rod photoreceptor inner segment currents that are not directly related to phototransduction ([51], [52]), we conducted also single-cell suction electrode recordings from the ROS from samples that were incubated either in the control medium or in the medium containing enhancer compound #1. The results from single cell recordings were similar to those obtained using ex vivo ERG: Rmax and fractional sensitivity were decreased from 12 (±0.4) to 9 (±0.3) pA and from 3.0 (±0.5) to 1.8 (±0.1)% per photon μm^−2, respectively, by rhodopsin dimerization–enhancing hit #1 (Fig. 6, A–C). Like the ex vivo ERG recordings, light response kinetics was not affected by compound #1 in the single-cell recordings (Fig. 6D).
Suction electrode recordings from individual rod photoreceptors of dark-adapted C57BL/6J mice were conducted as described previously ([65]). Before recordings, isolated retinas were incubated in the control medium (Ames’ medium + 0.1% DMSO) or in the hit compound–containing medium (Ames’ medium +250 μM F2502-0030 (#1)) as described above for ex vivo ERG experiments. After incubation, one half of the retina was chopped with a razor blade and transferred into a chamber where it was perfused at 1 ml/min with Ames’ medium saturated with 95% O2/5% CO2 at 35 °C. Recordings were made from a single ROS, using borosilicate glass electrodes with ∼1.5-μm opening (resistance ∼2 MΩ at 35 °C). The pipette solution was Hepes buffered Ames’ medium composed of 0.88 g Ames’ powder (A1420, Sigma-Aldrich), 0.357 g Hepes (Sigma-Aldrich), and 58.44 mg NaCl in […] distilled and vacuum-filtered water. The pH was adjusted to 7.4 with NaOH. Light responses were recorded to flashes of light ranging from 8 to 700 photons μm^−2 at 500 nm. For analysis, data were low-pass filtered using an 8-pole Bessel filter with cut-off frequency at 30 Hz.

[2] = test system: rod photoreceptors of isolated mouse retinas; test: ex vivo ERG of isolated mouse retinas (rod light responses); format: cell-based, mouse (C57BL/6J); settings: 250 μM compound
Text: We determined the impact of compound #7 (representative disrupter of rhodopsin dimerization) and compound #1 (representative enhancer) on the sensitivity and kinetics of rod light responses, using ex vivo electroretinogram (ERG) analysis of isolated mouse retinas (Experimental procedures). This technique allows robust recordings from intact retinas and is well suited for quantitative investigation of mouse phototransduction ([48], [49], [50], [51], [52], [53]).
Ex vivo ERG recordings were conducted with isolated retinas of C57Bl/6J mice, as described ([41], [62], [63]). Mice were dark-adapted overnight and euthanized by CO2 asphyxiation, and whole retinas were dissected under dim red light. Before recordings, retinas were incubated for 5 h in Ames’ medium (Sigma-Aldrich) inside a light-tight box that was supplied with humidified 95% O2/5% CO2. For control retinas, 0.1% DMSO was added to the incubation medium, and for others, the incubation medium contained either 250 μM F2502-0030 (compound #1) or F5897-0190 (compound #7). These compounds were first dissolved in DMSO at 250 mM concentration, and 0.1% of this stock solution was added to the incubation medium (Ames’ medium). Stock solution was stored at −20 °C and used within a week. After incubation, retinas were placed on the ex vivo ERG specimen holder and perfused with Ames’ medium (saturated with 95% O2/5% CO2) at 1.5 ml/min at 35 °C. Ames’ medium was supplemented with 100 μM BaCl2 and 40 μM DL-AP4 (Tocris Bioscience) to isolate the photoreceptor component of the ERG signal. Responses were recorded to 5 ms flashes of light (630 nm) ranging from 276 to 308,534 photons μm^−2, corresponding to 1 to 1100 photons μm^−2 at 500 nm ([64]). Sensitivity of rod photoreceptors was determined in three ways: (1) sF = peak amplitude of dim flash response divided by flash energy (1 photon μm^−2); (2) SF = sF/Rmax, where Rmax is the maximal response amplitude measured at the plateau from a saturated rod response; (3) I1/2: flash energy required to elicit 50% of the Rmax determined by fitting a Naka-Rushton function to flash energy-amplitude data.

[3] = target: T2, rhodopsin (isorhodopsin) dimerization (Homo sapiens, UniProt P08100); test: rhodopsin dimerization BRET assay in HEK293 opsin-Rluc/opsin-Venus cells; format: cell-based; design: expressed in transfected cells; host or cells: HEK293 (human embryonic kidney 293) opsin-Rluc / opsin-Venus cell lines; settings: for EC50: HEK293 opsin-Rluc/opsin-Venus cells regenerated with 9-cis-retinal, triplicates, read from Fig. 3B,E
Text: (§1) To identify small molecules that target rhodopsin dimerization, a cell-based high-throughput screening (HTS) assay was used to screen a diverse library of 50,000 compounds from Life Chemicals. The human osteosarcoma (U2OS) stable cell line was used, which expresses opsin fused with complimentary subunits of β-galactosidase (β-gal), namely, the enzyme acceptor large β-gal subunit (EA) and the enzyme donor, small subunit of β-gal (PK). Upon rhodopsin self-association in vitro, a competent β-gal was formed and chemiluminescent signal was generated in the presence of β-gal substrate (Fig. 1A). For further validation, the β-gal activity assay was used to counter-screen and rule out false positives, affecting the activity of β-gal without affecting rhodopsin (Fig. 1B) ([34]). In an orthogonal assay, rhodopsin dimerization was assessed using a bioluminescence resonance energy transfer (BRET) assay with human embryonic kidney 293 cells expressing opsin fused with Renilla luciferase and opsin fused with Venus (Fig. 1C) ([35], [36]). To form functional visual pigment, opsin-fused proteins were regenerated with 9-cis-retinal to form so-called isorhodopsin ([37]). We chose 9-cis-retinal over photoreceptor-endogenous 11-cis-retinal because of its availability and the prohibitive cost for HTS assays with the native chromophore. Rhodopsin and isorhodopsin have similar biochemical and spectral properties (see ([38])).
Identified hits from the β-gal complementation assay were subjected to the previously developed BRET assay, using human embryonic kidney 293 opsin–Renilla luciferase and opsin-Venus cell lines ([37]). Cultured cells were diluted to 2 × 10^5 cells/ml in the medium containing 10% fetal bovine serum (Thermo Fisher Scientific) and 1% penicillin-streptomycin (10,000 U/ml; Thermo Fisher Scientific), and 20 μl/well of the cell diluent was dispensed into a white ViewPlate-384 (PerkinElmer). Cells were cultured overnight at 37 °C in 5% CO2, and under a dim red light, cells were treated with 9-cis-retinal at 7.5 μM final concentration. The next day, cells were treated with the identified hit compounds from the β-gal complementation assay at 180 μM down to 2.4 nM concentrations, and 1 μM final concentration of TM5 peptide ([…]-NH2; EZBiolab) serving as the control. On the following day, the culture medium was aspirated and replaced with 90 μl/well of PBS containing pivaloyloxymethyl acetoxycoelenterazine h (Dalton Research Molecules) at 600 μM concentration followed by incubation at 20 °C for 40 min ([35]). Dual luminescence readings at 480 and 530 nm were performed using a SpectraMax L plate reader with the BRET1 filter set (Molecular Devices).

[4] = target: T2, rhodopsin (isorhodopsin) dimerization; test: rhodopsin β-gal fragment complementation assay in U2OS opsin-EA/opsin-PK cells; format: cell-based; design: expressed in transfected cells; settings: for EC50: U2OS opsin-EA/PK cells regenerated with 9-cis-retinal, triplicates, read from Fig. 3A,D
Text: as §1
All 50,000 compounds were screened, using the β-gal complementation assay at a final concentration of 60 μM with a Z′ factor of 0.75 ± 0.01 and a signal-to-background (S/B) ratio of 123 ± 14.4 (Fig. 2A) ([39]). The activity scores were calculated according to the following equation: (RLU(compound)−RLU(positivecontrol))/(RLU(negativecontrol)−RLU(positivecontrol))×100.
The positive control comprised U2OS cells transfected with both opsin-EA and opsin-PK, mimicking dimer formation (with a 0% score value), and the negative control comprised U2OS cells transfected with opsin-EA only, mimicking disrupted dimer formation (with a 100% score value).
In this study, cultured U2OS opsin-EA and opsin-PK cells were diluted to 2 × 10^5 cells/ml in the culture medium containing 10% fetal bovine serum (Thermo Fisher Scientific) and 1% penicillin-streptomycin 10,000 U/ml (Thermo Fisher Scientific). Cell diluent of 20 μl/well was dispensed into a white ViewPlate-384 (PerkinElmer) using the EL406 plate dispenser (BioTek). As a control, we used U2OS opsin-EA–only expressing cells as a positive control for dimerization disruption generating a minimal luminescence signal, as previously described ([41]). The plates were cultured overnight at 37 °C in 5% CO2, and the next day, under a dim red light, cells were treated with 5 μl/well of 9-cis-retinal (Sigma-Aldrich) at 7.5 μM final concentration. Plates were covered with aluminum foil and cultured overnight at 37 °C in 5% CO2. Next, cells were treated with each of the 50,000 library compounds (Life Chemicals Inc) at a final concentration of 57.6 μM, using a JANUS automated workstation (PerkinElmer), followed by incubation overnight at 37 °C, covered with aluminum foil. The next day, cells were treated with Galacton-Star chemiluminescent substrate (23 μl/well; Thermo Fisher Scientific). The plates were covered with foil and incubated at 20 °C for 2 h, followed by luminescence reading with the EnSpire multimode plate reader (PerkinElmer). Measurements were evaluated with the lowest value being defined as −50% (dimer enhancers) and the highest value as 100% (dimer disrupters) in the compound dataset. All experiments were done under red-light conditions. Identified compounds were retested in triplicates ranging from 180 μM down to 2.4 nM concentrations.

T2 sequence (P08100 whole entry, the tested form may be a part): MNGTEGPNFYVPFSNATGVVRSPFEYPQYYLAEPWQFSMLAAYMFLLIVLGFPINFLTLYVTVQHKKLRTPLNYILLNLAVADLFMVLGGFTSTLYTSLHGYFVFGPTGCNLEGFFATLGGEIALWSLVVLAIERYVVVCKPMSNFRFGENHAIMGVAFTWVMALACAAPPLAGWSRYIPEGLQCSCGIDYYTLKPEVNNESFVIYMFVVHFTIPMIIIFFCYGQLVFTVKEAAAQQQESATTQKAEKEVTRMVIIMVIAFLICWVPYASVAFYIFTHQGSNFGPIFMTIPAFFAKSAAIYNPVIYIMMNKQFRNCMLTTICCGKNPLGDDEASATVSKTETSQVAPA
T1 sequence (P02699 whole entry): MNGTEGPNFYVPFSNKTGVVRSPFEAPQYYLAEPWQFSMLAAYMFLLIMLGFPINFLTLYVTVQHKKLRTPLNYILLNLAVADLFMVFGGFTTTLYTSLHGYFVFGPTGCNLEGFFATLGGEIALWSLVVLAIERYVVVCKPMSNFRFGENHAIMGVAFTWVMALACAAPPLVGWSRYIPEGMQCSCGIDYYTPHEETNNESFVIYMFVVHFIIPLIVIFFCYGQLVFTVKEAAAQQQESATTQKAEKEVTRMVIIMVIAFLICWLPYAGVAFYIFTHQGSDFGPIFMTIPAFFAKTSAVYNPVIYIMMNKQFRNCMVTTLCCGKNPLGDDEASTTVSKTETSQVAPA

Row | Compound | Meta II decay rate (slope of intrinsic fluorescence over 150 s) relative to DMSO control (bovine rhodopsin) | EC50 [3] [µM] | EC50 [4] [µM] | other results
1 | Cc1onc(-c2ccccc2Cl)c1C(=O)Nc1cccc2ccc(-n3ccnc3)nc12 [#7] | statistically significant signal reduction | – | – | damage to photoreceptor cells [1]: caused damage to the photoreceptor cells; effect on kinetics of rod light responses [2]: marked deceleration of light responses; Rmax ([2]; 5 h incubation, N = 4 retinas): 550 ± 40 μV; half-saturating I1/2 from best-fitting Michaelis–Menten equation to mean normalized amplitudes ([2]; Fig. 5F): 34 photons μm^−2; SF (fractional sensitivity, sF/rmax) ([2]; N = 4): 4.0 ± 0.3 ^a %/photons∙μm^−2; sF (absolute sensitivity) ([2]; N = 4): 18 ± 6 ^a μV/photons∙μm^−2; I1/2 ([2]; from individual retinas, N = 4): 35 ± 3 ^a photons∙μm^−2; tp ([2]; time-to-peak of dim flash (1 photon μm^−2), N = 4): 910 ± 100 ^a ms
2 | COc1ccc(S(=O)(=O)N(C(C)=O)c2cc3sc(=O)oc3c3ccccc23)cc1 [#5] | – | 5.53 | 31.3 | –
3 | O=C(Nc1ccc(CC(=O)N2CCC(O)CC2)cc1)c1cc(-c2ccco2)on1 [#3] | statistically significant signal reduction | 7.87 | 23.9 | light-induced increase in Trp265 intrinsic fluorescence vs DMSO-treated isorhodopsin (bovine rhodopsin): significantly quenched
4 | O=C(NCCc1ccsc1)c1cc(-c2ccco2)on1 [#2] | – | 4 | 1.2 | –
5 | NC(=O)c1oc2ccccc2c1NC(=O)c1ccc(Oc2ccccc2)cc1 [#8] | statistically significant signal reduction | 20.5 | 16.5 | –
6 | CCOc1ccccc1-n1nnc(-c2nn3c(Cc4ccccc4)nnc3s2)c1C [#6] | statistically significant signal reduction | 13.6 | 30 | –
7 | O=C(CCCCn1c(=O)c2ccccc2n(Cc2ccccc2)c1=O)NCc1cccs1 [#4] | – | – | – | effect on dimerization in the BRET assay [3]: enhanced dimerization; effect on dimerization in the β-gal complementation assay [4]: disrupted dimerization
8 | Cc1c(C(=O)N(Cc2cccnc2)c2nc3c(F)cccc3s2)cnn1-c1ccccc1 [#9] | statistically significant signal reduction | 17.7 | 10.5 | –
